Patent US12466812B2, “Pyridinyltriazine derivative having protein kinase inhibitory activity, and pharmaceutical composition for preventing, ameliorating, or treating cancer comprising same” (KOREA INSTITUTE OF SCIENCE AND TECHNOLOGY, priority 2019, dated 2025)
Each block holds one compound with its values, some of them ahead of it.

Assays:
FGFR3 = FGFR3 (Homo sapiens, UniProt P22607); conditions: J. Med. Chem. 2011, 54:7066-7083; cited from earlier work
[1] = test system: RT112 bladder cancer cell line; conditions: J. Med. Chem. 2011, 54:7066-7083; cited from earlier work
[2] = test system: AN3-CA, a uterine cancer cell line; experiment: Inhibitory activity against cancer cell proliferation (Experimental Example 2); type: cell-based; conditions: Homo sapiens, Table 2
FGFR2 mutant (N549H) = FGFR2 mutant (N549H) (Homo sapiens, UniProt P21802, N549H); experiment: Pan-FGFR mutant enzymatic activity; type: biochemical; conditions: mutant enzyme
Description: (§1) The inhibitory activity against pan-FGFR mutants of the compounds synthesized in Examples 1, 8, 13, 22, and 24 was measured, the inhibitory activity on each of enzymatic activity and cellular activity was evaluated, and the results are shown in Tables 3 and 4 below.

FGFR2 mutant (V564F) = FGFR2 mutant (V564F) (Homo sapiens, UniProt P21802, V564F); experiment: Pan-FGFR mutant enzymatic activity; type: biochemical; conditions: mutant enzyme
Description: as §1

FGFR3 mutant (K650E) = FGFR3 mutant (K650E) (Homo sapiens, UniProt P22607, K650E); experiment: Pan-FGFR mutant enzymatic activity; type: biochemical; conditions: mutant enzyme
Description: as §1

FGFR3 mutant (K650M) = FGFR3 mutant (K650M) (Homo sapiens, UniProt P22607, K650M); experiment: Pan-FGFR mutant enzymatic activity; type: biochemical; conditions: mutant enzyme
Description: as §1

FGFR3 mutant (V555M) = FGFR3 mutant (V555M) (Homo sapiens, UniProt P22607, V555M); experiment: Pan-FGFR mutant enzymatic activity; type: biochemical; conditions: mutant enzyme
Description: as §1

AN3-CA = experiment: Pan-FGFR mutant cellular activity; type: cell-based; conditions: Homo sapiens, mutant cell, Table 4, read-out: GI50, AN3-CA (breast cancer cell line)
Description: as §1

[3] = test system: J82 (bladder cancer cell line); experiment: Pan-FGFR mutant cellular activity; type: cell-based; conditions: Table 4
Description: as §1

[4] = test system: KMS-11 (myeloma cell line); experiment: Pan-FGFR mutant cellular activity; type: cell-based; conditions: Homo sapiens, Table 4
Description: as §1

[5] = test system: UMUC3 (bladder cancer cell line); experiment: Pan-FGFR mutant cellular activity; type: cell-based; conditions: Homo sapiens, Table 4
Description: as §1

CYP1A2 = target: T1, CYP1A2 (Homo sapiens, UniProt P05177); experiment: Inhibitory activity against CYP metabolic enzyme; type: in vitro ADME
T1 sequence (P05177 1-516): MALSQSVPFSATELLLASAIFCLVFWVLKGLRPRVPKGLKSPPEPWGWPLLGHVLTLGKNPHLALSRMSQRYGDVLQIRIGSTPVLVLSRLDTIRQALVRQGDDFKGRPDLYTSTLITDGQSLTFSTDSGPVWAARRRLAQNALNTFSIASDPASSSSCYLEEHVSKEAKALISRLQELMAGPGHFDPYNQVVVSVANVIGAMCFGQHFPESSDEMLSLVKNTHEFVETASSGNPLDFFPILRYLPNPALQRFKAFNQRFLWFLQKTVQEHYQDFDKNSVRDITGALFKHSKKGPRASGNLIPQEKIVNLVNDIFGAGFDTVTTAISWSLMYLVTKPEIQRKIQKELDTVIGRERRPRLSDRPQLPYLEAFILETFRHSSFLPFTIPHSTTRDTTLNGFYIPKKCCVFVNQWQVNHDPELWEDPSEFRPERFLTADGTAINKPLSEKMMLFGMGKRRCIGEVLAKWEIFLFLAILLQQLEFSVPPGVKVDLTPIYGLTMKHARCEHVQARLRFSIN
Description: (§2) In order to determine whether or not there is a possibility that the compounds synthesized in Examples 1, 22, and 24 of the present invention can cause side effects of drug interaction, the rate (%) of inhibition against 5 major metabolic enzymes (CYP1A2, CYP2C9, CYP2C19, CYP2D6, and CYP3A4) among CYPs (cytochrome P450), which are enzymes involved in oxidative metabolism of drugs, was measured. […] That is, it can be seen that the compound of the present invention has a low possibility of causing side effects of drug interaction.

CYP2C19 = CYP2C19 (Homo sapiens, UniProt P33261); experiment: Inhibitory activity against CYP metabolic enzyme; type: in vitro ADME
Description: as §2

CYP2C9 = CYP2C9 (Homo sapiens, UniProt P11712); experiment: Inhibitory activity against CYP metabolic enzyme; type: in vitro ADME
Description: as §2

CYP2D6 = CYP2D6 (Homo sapiens, UniProt P10635); experiment: Inhibitory activity against CYP metabolic enzyme; type: in vitro ADME
Description: as §2

CYP3A4 = CYP3A4 (Homo sapiens, UniProt P08684); experiment: Inhibitory activity against CYP metabolic enzyme; type: in vitro ADME
Description: as §2

Microsomal stability [6] = type: in vitro ADME; conditions: human liver microsomes, based on sample taken at 0 minutes
Microsomal stability [7] = type: in vitro ADME; conditions: dog liver microsomes, based on sample taken at 0 minutes
Microsomal stability [8] = type: in vitro ADME; conditions: rat liver microsomes, based on sample taken at 0 minutes
Microsomal stability [9] = type: in vitro ADME; conditions: mouse liver microsomes, based on sample taken at 0 minutes

Sequence of FGFR2 mutant (N549H) (P21802 22-821 N549H): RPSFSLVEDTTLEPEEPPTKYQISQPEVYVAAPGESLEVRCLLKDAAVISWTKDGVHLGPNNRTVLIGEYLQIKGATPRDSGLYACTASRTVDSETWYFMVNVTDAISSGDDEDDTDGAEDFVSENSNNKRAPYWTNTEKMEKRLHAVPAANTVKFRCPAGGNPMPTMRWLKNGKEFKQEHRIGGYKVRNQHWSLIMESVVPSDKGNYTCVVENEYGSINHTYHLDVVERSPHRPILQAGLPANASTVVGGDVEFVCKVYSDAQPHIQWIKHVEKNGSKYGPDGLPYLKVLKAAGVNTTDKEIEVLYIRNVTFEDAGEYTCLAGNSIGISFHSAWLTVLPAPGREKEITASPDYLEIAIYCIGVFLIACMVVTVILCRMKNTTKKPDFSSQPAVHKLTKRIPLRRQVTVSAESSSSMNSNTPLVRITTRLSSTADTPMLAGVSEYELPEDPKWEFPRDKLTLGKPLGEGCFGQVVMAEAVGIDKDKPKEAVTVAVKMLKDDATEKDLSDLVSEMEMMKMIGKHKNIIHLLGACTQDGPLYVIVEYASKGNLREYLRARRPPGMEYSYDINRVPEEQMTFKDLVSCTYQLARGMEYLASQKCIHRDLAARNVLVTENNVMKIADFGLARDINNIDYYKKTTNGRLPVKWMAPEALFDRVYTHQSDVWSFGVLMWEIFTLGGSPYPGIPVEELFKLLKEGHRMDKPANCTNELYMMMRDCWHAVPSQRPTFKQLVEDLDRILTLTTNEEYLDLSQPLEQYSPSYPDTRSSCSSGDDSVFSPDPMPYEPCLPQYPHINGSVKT
Sequence of FGFR3 mutant (K650M) (P22607 23-806 K650M): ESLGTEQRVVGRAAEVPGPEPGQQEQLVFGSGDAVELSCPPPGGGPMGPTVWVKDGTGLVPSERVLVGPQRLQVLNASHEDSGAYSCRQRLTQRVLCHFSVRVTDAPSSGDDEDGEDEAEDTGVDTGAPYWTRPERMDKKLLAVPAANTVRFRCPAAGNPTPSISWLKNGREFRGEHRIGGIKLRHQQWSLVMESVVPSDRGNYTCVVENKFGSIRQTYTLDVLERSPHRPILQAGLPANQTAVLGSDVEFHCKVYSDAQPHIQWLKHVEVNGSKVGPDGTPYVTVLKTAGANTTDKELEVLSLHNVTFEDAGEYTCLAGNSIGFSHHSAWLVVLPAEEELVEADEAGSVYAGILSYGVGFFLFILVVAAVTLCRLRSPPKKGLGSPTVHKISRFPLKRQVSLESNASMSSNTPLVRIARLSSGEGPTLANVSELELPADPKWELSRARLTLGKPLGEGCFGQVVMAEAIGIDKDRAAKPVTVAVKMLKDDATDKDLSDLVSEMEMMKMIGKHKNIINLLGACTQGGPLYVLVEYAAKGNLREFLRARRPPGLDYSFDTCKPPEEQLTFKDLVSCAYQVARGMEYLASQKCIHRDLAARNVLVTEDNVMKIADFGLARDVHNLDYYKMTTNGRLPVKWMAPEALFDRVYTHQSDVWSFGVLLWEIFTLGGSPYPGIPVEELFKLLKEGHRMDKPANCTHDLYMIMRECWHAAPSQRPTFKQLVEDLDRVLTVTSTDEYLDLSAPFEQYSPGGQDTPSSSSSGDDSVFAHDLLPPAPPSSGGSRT
Sequence of FGFR3 mutant (K650E) (P22607 23-806 K650E): as the sequence (P22607 23-806 K650M) above, with M628E counted along it
Sequence of CYP2C9 (P11712 whole entry): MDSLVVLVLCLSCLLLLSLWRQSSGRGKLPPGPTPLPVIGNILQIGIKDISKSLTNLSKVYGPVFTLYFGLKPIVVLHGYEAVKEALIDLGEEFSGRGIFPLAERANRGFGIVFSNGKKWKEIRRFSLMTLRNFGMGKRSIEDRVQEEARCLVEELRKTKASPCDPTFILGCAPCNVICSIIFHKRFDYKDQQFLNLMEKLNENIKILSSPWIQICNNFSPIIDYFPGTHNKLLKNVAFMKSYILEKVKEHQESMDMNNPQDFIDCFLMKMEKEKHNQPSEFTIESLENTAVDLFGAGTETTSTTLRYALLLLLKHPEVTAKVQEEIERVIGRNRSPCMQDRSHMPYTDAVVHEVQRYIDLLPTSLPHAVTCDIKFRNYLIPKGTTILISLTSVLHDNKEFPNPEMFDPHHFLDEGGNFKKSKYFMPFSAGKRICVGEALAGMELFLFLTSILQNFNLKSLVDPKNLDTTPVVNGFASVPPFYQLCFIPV
Sequence of CYP2C19 (P33261 whole entry): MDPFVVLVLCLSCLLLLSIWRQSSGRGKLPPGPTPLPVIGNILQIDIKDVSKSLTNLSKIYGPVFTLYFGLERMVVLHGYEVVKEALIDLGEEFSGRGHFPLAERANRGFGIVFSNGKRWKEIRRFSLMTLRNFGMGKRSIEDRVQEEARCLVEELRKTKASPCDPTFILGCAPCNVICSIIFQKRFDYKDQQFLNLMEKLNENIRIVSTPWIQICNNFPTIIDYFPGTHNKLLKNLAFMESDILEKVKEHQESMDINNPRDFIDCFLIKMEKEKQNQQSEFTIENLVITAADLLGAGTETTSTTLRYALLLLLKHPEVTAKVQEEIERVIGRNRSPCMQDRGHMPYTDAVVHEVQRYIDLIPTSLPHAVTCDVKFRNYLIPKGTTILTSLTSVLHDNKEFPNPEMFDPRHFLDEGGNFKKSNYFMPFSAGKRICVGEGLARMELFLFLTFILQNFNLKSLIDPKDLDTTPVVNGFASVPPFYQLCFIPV
Sequence of FGFR2 mutant (V564F) (P21802 22-821 V564F): as the sequence (P21802 22-821 N549H) above, with H528N, V543F counted along it
Sequence of CYP3A4 (P08684 whole entry): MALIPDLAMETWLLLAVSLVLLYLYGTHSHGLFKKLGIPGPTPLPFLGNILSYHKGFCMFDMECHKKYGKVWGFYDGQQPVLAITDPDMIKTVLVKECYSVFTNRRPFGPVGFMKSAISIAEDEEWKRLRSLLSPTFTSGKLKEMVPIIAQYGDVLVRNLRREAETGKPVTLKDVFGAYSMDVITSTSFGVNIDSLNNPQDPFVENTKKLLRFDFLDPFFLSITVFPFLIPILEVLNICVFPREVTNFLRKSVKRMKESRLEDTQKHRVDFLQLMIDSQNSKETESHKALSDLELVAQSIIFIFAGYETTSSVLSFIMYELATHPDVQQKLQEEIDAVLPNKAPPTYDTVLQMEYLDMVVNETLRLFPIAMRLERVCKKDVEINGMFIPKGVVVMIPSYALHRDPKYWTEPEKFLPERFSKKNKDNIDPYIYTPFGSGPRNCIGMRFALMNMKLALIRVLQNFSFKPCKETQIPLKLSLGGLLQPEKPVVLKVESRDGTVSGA
Sequence of FGFR3 (P22607 23-806): as the sequence (P22607 23-806 K650M) above, with M628K counted along it
Sequence of CYP2D6 (P10635 whole entry): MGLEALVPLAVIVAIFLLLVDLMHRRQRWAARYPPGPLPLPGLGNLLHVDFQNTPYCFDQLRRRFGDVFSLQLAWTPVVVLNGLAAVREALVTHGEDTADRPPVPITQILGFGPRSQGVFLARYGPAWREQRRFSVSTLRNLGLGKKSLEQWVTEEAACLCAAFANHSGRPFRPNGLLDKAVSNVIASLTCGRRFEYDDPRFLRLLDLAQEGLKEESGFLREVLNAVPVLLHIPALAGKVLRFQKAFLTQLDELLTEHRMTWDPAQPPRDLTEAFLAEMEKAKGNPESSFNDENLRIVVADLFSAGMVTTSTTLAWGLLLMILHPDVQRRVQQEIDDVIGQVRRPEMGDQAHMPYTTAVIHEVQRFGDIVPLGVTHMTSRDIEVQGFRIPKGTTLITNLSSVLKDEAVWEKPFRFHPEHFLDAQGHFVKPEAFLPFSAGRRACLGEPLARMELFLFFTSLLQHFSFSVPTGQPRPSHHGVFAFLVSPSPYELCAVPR
Sequence of FGFR3 mutant (V555M) (P22607 23-806 V555M): as the sequence (P22607 23-806 K650M) above, with V533M, M628K counted along it

Structure (SMILES): CCN1CCN(c2ccc(Nc3cc(N(C)C(=O)Nc4c(Cl)c(OC)cc(OC)c4Cl)ncn3)cc2)CC1 [3-(2,6-dichloro-3,5-dimethoxyphenyl)-1-6-[4-(4-ethyl-piperazin-1-yl)phenylamino]pyrimidine-4-yl-1-methyl urea]
- inhibitory activity against FGFR3 (FGFR3): selective inhibitory activity
- anticancer activity against the RT112 bladder cancer cell line [1]: effective anticancer activity

- GI50 [2]: < 1000 nM
- IC50 (FGFR2 mutant (N549H)): < 100 nM
- IC50 (FGFR2 mutant (V564F)): 100 to 1000 nM
- IC50 (FGFR3 mutant (K650E)): < 100 nM
- IC50 (FGFR3 mutant (K650M)): < 100 nM
- IC50 (FGFR3 mutant (V555M)): < 100 nM
- GI50 [3]: < 1000 nM
- GI50 [4]: < 1000 nM
- GI50 [5]: < 1000 nM
- rate (%) of inhibition, CYP1A2 (CYP1A2): 75.9%
- rate (%) of inhibition, CYP2C19 (CYP2C19): 44.6%
- rate (%) of inhibition, CYP2C9 (CYP2C9): 79.1%
- rate (%) of inhibition, CYP2D6 (CYP2D6): 81.0%
- rate (%) of inhibition, CYP3A4 (CYP3A4): 17.6%
- remaining (%) after reaction with the microsome, Human (Microsomal stability [6]): 21.8%
- remaining (%) after reaction with the microsome, Human (Microsomal stability [6]; listed as Compound No. 22): 21.8%
- remaining (%) after reaction with the microsome, Dog (Microsomal stability [7]): 8.3%
- remaining (%) after reaction with the microsome, Dog (Microsomal stability [7]; listed as Compound No. 22): 8.3%
- remaining (%) after reaction with the microsome, Rat (Microsomal stability [8]): 7.7%
- remaining (%) after reaction with the microsome, Rat (Microsomal stability [8]; listed as Compound No. 22): 7.7%
- remaining (%) after reaction with the microsome, Mouse (Microsomal stability [9]): 11.5%
- remaining (%) after reaction with the microsome, Mouse (Microsomal stability [9]; listed as Compound No. 22): 11.5%
Structure (SMILES): COc1cc(OC)c(Cl)c(Nc2ncccc2-c2ncnc(Nc3cnn(C4CCN(C(C)C)CC4)c3)n2)c1Cl [Example 22]
- GI50 (AN3-CA): < 1000 nM
